{
  "source": "paper PMC10724690",
  "about": "“Deciphering specificity and cross-reactivity in tachykinin NK1 and NK2 receptors” (The Journal of Biological Chemistry, 2023)",
  "key": {"NK2R [1]": {"molecular_target": "T1, NK2R (Homo sapiens, UniProt P21452)", "T1 construct": "host or cells: COS7", "T1 sequence (P21452 1-398)": "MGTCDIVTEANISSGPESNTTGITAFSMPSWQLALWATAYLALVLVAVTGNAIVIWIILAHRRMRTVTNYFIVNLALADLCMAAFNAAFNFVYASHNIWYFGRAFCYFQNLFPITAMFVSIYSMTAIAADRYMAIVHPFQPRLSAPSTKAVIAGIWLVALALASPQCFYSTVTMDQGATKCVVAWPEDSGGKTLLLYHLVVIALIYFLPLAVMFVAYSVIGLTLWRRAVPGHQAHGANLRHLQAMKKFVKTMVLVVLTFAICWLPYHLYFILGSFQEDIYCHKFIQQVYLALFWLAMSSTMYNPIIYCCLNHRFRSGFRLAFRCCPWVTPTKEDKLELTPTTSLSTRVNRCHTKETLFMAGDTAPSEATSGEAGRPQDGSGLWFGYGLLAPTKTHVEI", "experiment": "IP3 (IP accumulation) assay, wildtype NK2R", "type": "cell-based", "settings": "for Emax: Fig 3a, alanine scan of NKA, dose response, IP accumulation ([3H]inositol, SPA) in transfected COS7 cells, 10 mM LiCl, 150 min 37 °C, four-parameter fit", "experimental": "(§1) COS7 cells (derived from African green monkey kidney fibroblast and originally bought from ThermoFisher) were maintained in Dulbecco´s Modified Eagle´s Medium 1885 with GlutaMAX supplemented with 10% fetal bovine serum (Sigma-Aldrich), 100 units/ml penicillin and 100 μg/ml streptomycin at 37 °C with 10% CO2. COS7 cells were plated in either clear-, white-, or white with clear bottom 96-well plates that were coated with poly-D-lysine (Sigma-Aldrich) 30 min prior to cell seeding (20.000 cells/well). The following day plates were transiently transfected using calcium precipitation with 200 ng/well DNA in a culture medium with the addition of 100 μM (final concentration) Chloroquine. Transfection was stopped 5 h later with the addition of a fresh maintenance medium. Fig. […] COS7 cells seeded in clear 96-well plates were incubated with 0.5 μCi/ml myo [3H]inositol (PerkinElmer) in 100 μl growth medium over night following the transfection. The subsequent day cells were washed twice with 200 μl/well HBSS (GIBCO, Life Technologies) and pre-incubated for 5 min at 37 °C with 100 μl/well HBSS buffer supplemented with 10 mM LiCl. Ligand addition was followed by 150 min incubation at 37 °C. To stop ligand incubation, cells were lysed with 40 μl 10 mM formic acid followed by 30 min incubation on ice. 35 μl of the lysate was transferred to white 96-well plates together with 60 μl of 1:8 diluted YSi SPA scintillation beads (PerkinElmer). Plates were sealed and vigorously shaken for 15 min followed by 5 min centrifugation at 1500 rpm. Measurements (scintillation) were recorded on a Microbeta (PerkinElmer) after a 4 h delay and determinations were made in duplicates. All dose-response curves have been calculated using Prism 10 software (GraphPad Software) non-linear regression with four parameters. All data are shown as mean ± SEM unless stated otherwise and consist of two technical replicates from three biological replicates."}, "NK1R-R177Q [2]": {"molecular_target": "T2, NK1R-R177Q (Homo sapiens, UniProt P25103, R177Q)", "T2 construct": "host or cells: COS7", "T2 sequence (P25103 whole entry R177Q)": "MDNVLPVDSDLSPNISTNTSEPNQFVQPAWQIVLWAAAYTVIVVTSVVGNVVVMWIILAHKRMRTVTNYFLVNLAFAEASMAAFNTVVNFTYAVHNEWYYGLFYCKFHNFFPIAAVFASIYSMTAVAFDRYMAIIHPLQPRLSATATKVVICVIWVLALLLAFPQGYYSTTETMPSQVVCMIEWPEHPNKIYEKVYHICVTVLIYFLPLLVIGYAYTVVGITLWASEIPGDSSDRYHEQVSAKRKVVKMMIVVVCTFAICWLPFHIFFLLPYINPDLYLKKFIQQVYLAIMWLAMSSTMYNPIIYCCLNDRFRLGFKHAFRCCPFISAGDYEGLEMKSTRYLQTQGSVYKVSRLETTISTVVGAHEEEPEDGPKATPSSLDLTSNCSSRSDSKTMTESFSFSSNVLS", "experiment": "BRET-based cAMP assay, NK1R-R177Q", "type": "cell-based", "settings": "COS-7", "experimental": "(§2) COS7 cells (derived from African green monkey kidney fibroblast and originally bought from ThermoFisher) were maintained in Dulbecco´s Modified Eagle´s Medium 1885 with GlutaMAX supplemented with 10% fetal bovine serum (Sigma-Aldrich), 100 units/ml penicillin and 100 μg/ml streptomycin at 37 °C with 10% CO2. COS7 cells were plated in either clear-, white-, or white with clear bottom 96-well plates that were coated with poly-D-lysine (Sigma-Aldrich) 30 min prior to cell seeding (20.000 cells/well). The following day plates were transiently transfected using calcium precipitation with 200 ng/well DNA in a culture medium with the addition of 100 μM (final concentration) Chloroquine. Transfection was stopped 5 h later with the addition of a fresh maintenance medium. Fig. […] The intracellular level of cAMP was monitored in real-time using bioluminescence resonance energy transfer (BRET). This was achieved by implementing a construct consisting of a cAMP binding protein (Exchange protein activated by cAMP (Epac)) which has been flanked by a BRET pair consisting of Renilla luciferase (Rluc) and yellow fluorescent protein (YFP). […] The BRET signal was calculated as the ratio of emission intensity at 535 nm (citrine) to the emission intensity at 475 nm (luciferase). […] All dose-response curves have been calculated using Prism 10 software (GraphPad Software) non-linear regression with four parameters. […]"}, "NK1R [3]": {"molecular_target": "T3, NK1R (Homo sapiens, UniProt P25103)", "T3 construct": "host or cells: COS7", "experiment": "IP3 (IP accumulation) assay, wildtype NK1R", "type": "cell-based", "experimental": "as §1, with “Ligand addition was followed by 150 min incubation at 37 °C. To stop ligand incubation, cells were lysed with 40 μl 10 mM formic acid followed by 30 min incubation on ice. 35 μl of the lysate was transferred to white 96-well plates together with 60 μl of 1:8 diluted YSi SPA scintillation beads (PerkinElmer). Plates were sealed and vigorously shaken for 15 min followed by 5 min centrifugation at 1500 rpm.” left out, “All data are shown as mean ± SEM unless stated otherwise and consist of two technical replicates from three biological replicates.” left out"}, "NK1R-R177Q [4]": {"molecular_target": "T2, NK1R-R177Q", "experiment": "IP3 activation assay, NK1R-R177Q", "type": "cell-based", "settings": "COS-7", "experimental": "as §1, with “Ligand addition was followed by 150 min incubation at 37 °C. To stop ligand incubation, cells were lysed with 40 μl 10 mM formic acid followed by 30 min incubation on ice. 35 μl of the lysate was transferred to white 96-well plates together with 60 μl of 1:8 diluted YSi SPA scintillation beads (PerkinElmer). Plates were sealed and vigorously shaken for 15 min followed by 5 min centrifugation at 1500 rpm.” left out, “All data are shown as mean ± SEM unless stated otherwise and consist of two technical replicates from three biological replicates.” left out"}, "NK1R [5]": {"molecular_target": "T3, NK1R", "experiment": "BRET-based cAMP assay, wildtype NK1R", "type": "cell-based", "settings": "COS-7, Fig 7d, NK1R WT, ligand NKA (by identity with Fig 5b values)", "experimental": "as §2"}, "NK1R-R177K": {"molecular_target": "T4, NK1R-R177K (Homo sapiens, UniProt P25103, R177K)", "T4 construct": "host or cells: COS7", "T4 sequence (P25103 whole entry R177K)": "as the sequence (P25103 whole entry R177Q) above, with Q177K counted along it", "experiment": "BRET-based cAMP assay, NK1R-R177K", "type": "cell-based", "settings": "COS-7", "experimental": "as §2"}, "NK2R [6]": {"molecular_target": "T1, NK2R", "settings": "ref [19], cited from earlier work", "description": "In sharp contrast, NKA-D4 and NKA6-10 are found to be critical for activity."}},
  "note": "Where no end group is shown, it is not given here.",
  "data": [
    {"compound": "CSCC[C@H](NC(=O)[C@H](CC(C)C)NC(=O)CNC(=O)[C@@H](NC(=O)[C@H](Cc1ccccc1)NC(=O)[C@H](CO)NC(=O)[C@H](CC(=O)O)NC(=O)[C@@H](NC(=O)[C@H](CCCCN)NC(=O)[C@H](C)N)[C@@H](C)O)C(C)C)C(N)=O", "note": "[Ala1]", "values": [
      {"measurement": "EC50", "setting": "NK2R [1]", "value": 0.715, "unit": "nM"}
    ]},
    {"compound": "HKADSFVGLM-NH2 [Ala3]", "values": [
      {"measurement": "EC50", "setting": "NK2R [1]", "value": 0.598, "unit": "nM"}
    ]},
    {"compound": "HKTDAFVGLM-NH2 [Ala5]", "values": [
      {"measurement": "EC50", "setting": "NK2R [1]", "value": 25.9, "unit": "nM"}
    ]},
    {"compound": "Ala4: NKA variant of the alanine scan, alanine in position 4 (Asp) (HKTASFVGLM; ends and bridges not checked; UniProt P20366 98-107, looked up, variant D4A)", "values": [
      {"measurement": "Emax", "setting": "NK2R [1]", "value": 1066}
    ]},
    {"compound": "HKTDSFVGLA-NH2 [Ala10]", "values": [
      {"measurement": "EC50", "setting": "NK2R [1]", "value": 31.9, "unit": "nM"}
    ]},
    {"compound": "CSCC[C@H](NC(=O)[C@H](CC(C)C)NC(=O)CNC(=O)[C@@H](NC(=O)[C@H](Cc1ccccc1)NC(=O)[C@H](CO)NC(=O)[C@H](CC(=O)O)NC(=O)[C@@H](NC(=O)[C@H](CCCCN)NC(=O)[C@@H](N)Cc1c[nH]cn1)[C@@H](C)O)C(C)C)C(N)=O", "note": "[NKA, neurokinin A]", "values": [
      {"measurement": "Emax", "setting": "NK1R-R177Q [2]", "value": 13.1, "unit": "%"},
      {"measurement": "Emax", "setting": "NK1R [3]; COS-7, Fig 7c, IP3 activation assay, NK1R WT, ligand NKA (by identity with Fig 5a values)", "value": 100, "unit": "%"},
      {"measurement": "Emax", "setting": "NK1R [3]; COS-7, Fig 5a, IP3 assay, NK1R WT in COS7 cells", "value": 100, "unit": "%"},
      {"measurement": "Emax", "setting": "NK1R-R177Q [4]", "value": 59.3, "unit": "%"},
      {"measurement": "Emax", "setting": "NK1R [5]", "value": 109, "unit": "%"},
      {"measurement": "Emax", "setting": "NK1R-R177K", "value": 10.7, "unit": "%"}
    ]},
    {"compound": "HATDSFVGLM-NH2 [Ala2]", "values": [
      {"measurement": "EC50", "setting": "NK2R [1]", "value": 0.68, "unit": "nM"}
    ]},
    {"compound": "Ala7: NKA variant of the alanine scan, alanine in position 7 (HKTDSFAGLM; ends and bridges not checked; UniProt P20366 98-107, looked up, variant V7A)", "values": [
      {"measurement": "Emax", "setting": "NK2R [1]", "value": 178}
    ]},
    {"compound": "Ala9: NKA variant of the alanine scan, alanine in position 9 (HKTDSFVGAM; ends and bridges not checked; UniProt P20366 98-107, looked up, variant L9A)", "values": [
      {"measurement": "Emax", "setting": "NK2R [1]", "value": 136}
    ]},
    {"compound": "KDSFVGL(γ-lactam)M-NH2 [GR64349]", "values": [
      {"measurement": "selectivity", "setting": "NK2R [6]; NK2R agonist selectivity", "value": "most selective NK2R agonist reported so far"},
      {"measurement": "agonist character", "setting": "NK2R [6]", "value": "full agonist"}
    ]}
  ]
}
